Laboratory results as given in patent US12077503B2, “Substituted cyclic amides and their use as herbicides” (FMC CORPORATION, priority 2015, dated 2024).

Tests used:
Format in all cases: in vivo
[1] = system: velvetleaf (Abutilon theophrasti); assay: Test G Pre-Emergence Protocol; conditions: Abutilon theophrasti, pre-emergence, 312 h, evaluated after 13 days; for pest or weed control at 15.625 g/ha: 15.625 g ai/ha; for pest or weed control at 15.625 g/ha / pest or weed control at 250 g/ha: read-out: Velvetleaf damage rating (100=total damage to plant; 0=no damage to plant); for pest or weed control at 62.5 g/ha: 62.5 g ai/ha, 100=total damage to plant, 0=no damage to plant, read-out: plant damage rating, Velvetleaf; for pest or weed control at 250 g/ha: 250 g ai/ha
How it was run: (§1)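 Visual injury (0–100) at day 13 after a single pre-emergence spray. Rates: 15.625, 62.5, 250 g/ha in acetone–water 50:50 with 0.5% Tween 20. Growth conditions: 24/16° C, 14 h light, 65% humidity.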

[2] = system: ivy-leaved morning glory (Ipomoea hederacea); assay: Test G Pre-Emergence Protocol; conditions: Ipomoea, pre-emergence, 312 h, evaluated after 13 days; for pest or weed control at 15.625 g/ha: 15.625 g ai/ha, read-out: Morning-glory, Ivy-leaved damage rating (100=total damage to plant; 0=no damage to plant); for pest or weed control at 62.5 g/ha: 62.5 g ai/ha, 100=total damage to plant, 0=no damage to plant, read-out: plant damage rating, Morningglory, Ivy-leaved; for pest or weed control at 250 g/ha: 250 g ai/ha, read-out: Morningglory, Ivy-leaved damage rating (100=total damage to plant; 0=no damage to plant)
How it was run: as §1

[3] = system: giant foxtail (Setaria faberi); assay: Test G Pre-Emergence Protocol; conditions: Setaria faberi, pre-emergence, 312 h, evaluated after 13 days; for pest or weed control at 15.625 g/ha: 15.625 g ai/ha; for pest or weed control at 15.625 g/ha / pest or weed control at 250 g/ha: read-out: Foxtail, Giant damage rating (100=total damage to plant; 0=no damage to plant); for pest or weed control at 62.5 g/ha: 62.5 g ai/ha, 100=total damage to plant, 0=no damage to plant, read-out: plant damage rating, Foxtail, Giant; for pest or weed control at 250 g/ha: 250 g ai/ha
How it was run: as §1

corn (Zea mays) [4] = assay: Test G Pre-Emergence Protocol; conditions: Zea mays, pre-emergence, 312 h, evaluated after 13 days; for plant injury at 15.625 g/ha: 15.625 g ai/ha; for plant injury at 15.625 g/ha / plant injury at 250 g/ha: read-out: Corn damage rating (100=total damage to plant; 0=no damage to plant); for plant injury at 62.5 g/ha: 62.5 g ai/ha, 100=total damage to plant, 0=no damage to plant, read-out: plant damage rating, Corn; for plant injury at 250 g/ha: 250 g ai/ha
How it was run: as §1

[5] = system: redroot pigweed (Amaranthus retroflexus); assay: Test G Pre-Emergence Protocol; conditions: Amaranthus retroflexus, pre-emergence, 312 h, evaluated after 13 days; for pest or weed control at 15.625 g/ha: 15.625 g ai/ha; for pest or weed control at 15.625 g/ha / pest or weed control at 250 g/ha: read-out: Pigweed, Redroot damage rating (100=total damage to plant; 0=no damage to plant); for pest or weed control at 62.5 g/ha: 62.5 g ai/ha, 100=total damage to plant, 0=no damage to plant, read-out: plant damage rating, Pigweed, Redroot; for pest or weed control at 250 g/ha: 250 g ai/ha
How it was run: as §1

[6] = system: barnyardgrass (Echinochloa crus-galli); assay: Test G Pre-Emergence Protocol; conditions: Echinochloa crus-galli, pre-emergence, 312 h, evaluated after 13 days; for pest or weed control at 15.625 g/ha: 15.625 g ai/ha, read-out: Barnyard grass damage rating (100=total damage to plant; 0=no damage to plant); for pest or weed control at 62.5 g/ha: 62.5 g ai/ha, 100=total damage to plant, 0=no damage to plant, read-out: plant damage rating, Barnyardgrass; for pest or weed control at 250 g/ha: 250 g ai/ha, read-out: Barnyardgrass damage rating (100=total damage to plant; 0=no damage to plant)
How it was run: as §1

[7] = system: velvetleaf (Abutilon theophrasti); assay: Test G Post-Emergence Protocol; conditions: Abutilon theophrasti, post-emergence, 312 h; for pest or weed control at 15.625 g/ha: 15.625 g ai/ha, evaluated after 13 days (100=total damage to plant; 0=no damage to plant), read-out: Velvetleaf damage rating; for pest or weed control at 62.5 g/ha: 62.5 g ai/ha, read-out: Velvetleaf damage rating (100=total damage to plant; 0=no damage to plant); for pest or weed control at 62.5 g/ha / pest or weed control at 250 g/ha: evaluated after 13 days; for pest or weed control at 250 g/ha: 250 g ai/ha, read-out: damage to plant, Velvetleaf (100=total damage to plant; 0=no damage to plant)
How it was run: (§2)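 Eight days post-sowing, plants received a spray of test compound (acetone/water 50:50, 0.5% Tween 20) at 15.625, 62.5 or 250 g/ha. Glasshouse regime thereafter: 24/16 °C, 14 h light, 65% humidity. Assessment after 13 days on a 0–100 damage scale.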

[8] = system: ivy-leaved morning glory (Ipomoea hederacea); assay: Test G Post-Emergence Protocol; conditions: Ipomoea, post-emergence, 312 h; for pest or weed control at 15.625 g/ha: 15.625 g ai/ha, evaluated after 13 days (100=total damage to plant; 0=no damage to plant), read-out: Morningglory, Ivy-leaved damage rating; for pest or weed control at 62.5 g/ha: 62.5 g ai/ha, read-out: Morningglory, Ivy-leaved damage rating (100=total damage to plant; 0=no damage to plant); for pest or weed control at 62.5 g/ha / pest or weed control at 250 g/ha: evaluated after 13 days; for pest or weed control at 250 g/ha: 250 g ai/ha, read-out: damage to plant, Morningglory, Ivy-leaved (100=total damage to plant; 0=no damage to plant)
How it was run: as §2

[9] = system: giant foxtail (Setaria faberi); assay: Test G Post-Emergence Protocol; conditions: Setaria faberi, post-emergence, 312 h; for pest or weed control at 15.625 g/ha: 15.625 g ai/ha, evaluated after 13 days (100=total damage to plant; 0=no damage to plant), read-out: Foxtail, Giant damage rating; for pest or weed control at 62.5 g/ha: 62.5 g ai/ha, read-out: Foxtail, Giant damage rating (100=total damage to plant; 0=no damage to plant); for pest or weed control at 62.5 g/ha / pest or weed control at 250 g/ha: evaluated after 13 days; for pest or weed control at 250 g/ha: 250 g ai/ha, read-out: damage to plant, Foxtail, Giant (100=total damage to plant; 0=no damage to plant)
How it was run: as §2

corn (Zea mays) [10] = assay: Test G Post-Emergence Protocol; conditions: Zea mays, post-emergence, 312 h; for plant injury at 15.625 g/ha: 15.625 g ai/ha, evaluated after 13 days (100=total damage to plant; 0=no damage to plant), read-out: Corn damage rating; for plant injury at 62.5 g/ha: 62.5 g ai/ha, read-out: Corn damage rating (100=total damage to plant; 0=no damage to plant); for plant injury at 62.5 g/ha / plant injury at 250 g/ha: evaluated after 13 days; for plant injury at 250 g/ha: 250 g ai/ha, read-out: damage to plant, Corn (100=total damage to plant; 0=no damage to plant)
How it was run: as §2

[11] = system: redroot pigweed (Amaranthus retroflexus); assay: Test G Post-Emergence Protocol; conditions: Amaranthus retroflexus, post-emergence, 312 h; for pest or weed control at 15.625 g/ha: 15.625 g ai/ha, evaluated after 13 days (100=total damage to plant; 0=no damage to plant), read-out: Pigweed, Redroot damage rating; for pest or weed control at 62.5 g/ha: 62.5 g ai/ha, read-out: Pigweed, Redroot damage rating (100=total damage to plant; 0=no damage to plant); for pest or weed control at 62.5 g/ha / pest or weed control at 250 g/ha: evaluated after 13 days; for pest or weed control at 250 g/ha: 250 g ai/ha, read-out: damage to plant, Pigweed, Redroot (100=total damage to plant; 0=no damage to plant)
How it was run: as §2

[12] = system: barnyardgrass (Echinochloa crus-galli); assay: Test G Post-Emergence Protocol; conditions: Echinochloa crus-galli, post-emergence, 312 h; for pest or weed control at 15.625 g/ha: 15.625 g ai/ha, evaluated after 13 days (100=total damage to plant; 0=no damage to plant), read-out: Barnyardgrass damage rating; for pest or weed control at 62.5 g/ha: 62.5 g ai/ha, read-out: Barnyardgrass damage rating (100=total damage to plant; 0=no damage to plant); for pest or weed control at 62.5 g/ha / pest or weed control at 250 g/ha: evaluated after 13 days; for pest or weed control at 250 g/ha: 250 g ai/ha, read-out: damage to plant, Barnyardgrass (100=total damage to plant; 0=no damage to plant)
How it was run: as §2

SMILES	pest or weed control at 15.625 g/ha [1] [%]	pest or weed control at 62.5 g/ha [1] [%]	pest or weed control at 250 g/ha [1] [%]	pest or weed control at 15.625 g/ha [2] [%]	pest or weed control at 62.5 g/ha [2] [%]	pest or weed control at 250 g/ha [2] [%]	pest or weed control at 15.625 g/ha [3] [%]	pest or weed control at 62.5 g/ha [3] [%]	pest or weed control at 250 g/ha [3] [%]	plant injury at 15.625 g/ha (corn (Zea mays) [4]) [%]	plant injury at 62.5 g/ha (corn (Zea mays) [4]) [%]	plant injury at 250 g/ha (corn (Zea mays) [4]) [%]	pest or weed control at 15.625 g/ha [5] [%]	pest or weed control at 62.5 g/ha [5] [%]	pest or weed control at 250 g/ha [5] [%]	pest or weed control at 15.625 g/ha [6] [%]	pest or weed control at 62.5 g/ha [6] [%]	pest or weed control at 250 g/ha [6] [%]	pest or weed control at 15.625 g/ha [7] [%]	pest or weed control at 62.5 g/ha [7] [%]	also measured
CCc1nnc(NC(=O)[C@@H]2C(=O)N(C)C[C@H]2c2ccc(C(F)(F)F)cc2)s1 (racemic) [Compound 1558]	0	0	0	0	0	0	0	0	0	0	0	0	0	0	10	0	0	10	0	0	pest or weed control at 250 g/ha [7]: 0%; pest or weed control at 15.625 g/ha [8]: 0%; pest or weed control at 62.5 g/ha [8]: 0%; pest or weed control at 250 g/ha [8]: 0%; pest or weed control at 15.625 g/ha [9]: 0%; pest or weed control at 62.5 g/ha [9]: 0%; pest or weed control at 250 g/ha [9]: 0%; plant injury at 15.625 g/ha (corn (Zea mays) [10]): 0%; plant injury at 62.5 g/ha (corn (Zea mays) [10]): 0%; plant injury at 250 g/ha (corn (Zea mays) [10]): 0%; pest or weed control at 15.625 g/ha [11]: 0%; pest or weed control at 62.5 g/ha [11]: 0%; pest or weed control at 250 g/ha [11]: 0%; pest or weed control at 15.625 g/ha [12]: 0%; pest or weed control at 62.5 g/ha [12]: 10%; pest or weed control at 250 g/ha [12]: 20%
CN1C[C@@H](c2ccc(C(F)(F)F)cc2)[C@H](C(=O)Nc2cccc(C(F)(F)F)n2)C1=O (racemic) [Compound 1563]	0	0	0	0	0	0	0	0	0	0	0	0	0	0	0	0	0	0	0	0	pest or weed control at 250 g/ha [7]: 0%; pest or weed control at 15.625 g/ha [8]: 0%; pest or weed control at 62.5 g/ha [8]: 0%; pest or weed control at 250 g/ha [8]: 0%; pest or weed control at 15.625 g/ha [9]: 0%; pest or weed control at 62.5 g/ha [9]: 0%; pest or weed control at 250 g/ha [9]: 0%; plant injury at 15.625 g/ha (corn (Zea mays) [10]): 0%; plant injury at 62.5 g/ha (corn (Zea mays) [10]): 0%; plant injury at 250 g/ha (corn (Zea mays) [10]): 0%; pest or weed control at 15.625 g/ha [11]: 0%; pest or weed control at 62.5 g/ha [11]: 0%; pest or weed control at 250 g/ha [11]: 0%; pest or weed control at 15.625 g/ha [12]: 0%; pest or weed control at 62.5 g/ha [12]: 0%; pest or weed control at 250 g/ha [12]: 0%
CN1C[C@@H](c2ccc(C(F)(F)F)cc2)[C@H](C(=O)Nc2ncccn2)C1=O (racemic) [Compound 1564]	0	0	0	0	0	0	0	0	0	0	0	10	0	0	0	0	0	0	0	0	pest or weed control at 250 g/ha [7]: 0%; pest or weed control at 15.625 g/ha [8]: 0%; pest or weed control at 62.5 g/ha [8]: 0%; pest or weed control at 250 g/ha [8]: 0%; pest or weed control at 15.625 g/ha [9]: 0%; pest or weed control at 62.5 g/ha [9]: 0%; pest or weed control at 250 g/ha [9]: 10%; plant injury at 15.625 g/ha (corn (Zea mays) [10]): 0%; plant injury at 62.5 g/ha (corn (Zea mays) [10]): 0%; plant injury at 250 g/ha (corn (Zea mays) [10]): 10%; pest or weed control at 15.625 g/ha [11]: 0%; pest or weed control at 62.5 g/ha [11]: 0%; pest or weed control at 250 g/ha [11]: 10%; pest or weed control at 15.625 g/ha [12]: 0%; pest or weed control at 62.5 g/ha [12]: 0%; pest or weed control at 250 g/ha [12]: 20%
